# Measured values taken from patent EP1473301A2, “Betulinol derivatives” (CORNELL RESEARCH FOUNDATION, INC., priority 1997, dated 1998).
# Key:
# [1] = test system: WALKER-CARCINOMA (carcinosarcoma); assay: Anti-carcinogenic activity in rats implanted with Walker carcinoma (tumor volume, average length of life, % cured); assay type: in vivo, white rats
# Experimental: (§1) The anti-carcinogenic activity of betulinol biacetate and betulonic aldehyde was assessed using 117-120 gram white rats implanted with […] and 21-23 gram white mice with artificially transplanted Ehrlich's tumor.
# (§2) Solutions of 2.5% betulonic aldehyde and 0.05% betulinol biacetate were prepared in 10% polyvinylpyrrolidone containing Tween-80 (a sorbitan mono-9-octadecenate poly(oxy-1,2-ethanediyl)) stabilizer.
# (§3) Mice were injected with 0.1-0.2 ml of either betulinol biacetate or betulonic aldehyde solution daily, starting 24 hours after transplantation, for the following 5 days. Rats were injected with 1.2 ml of either betulinol biacetate or betulonic aldehyde solution daily, starting 24 hours after implantation, for the following 5 days. Animals in control groups received the same amount of a 10% solution of polyvinylpyrrolidone.
# (§4) The anti-tumor effect of betulinol acetate or betulonic aldehyde was determined by measuring the volume of the tumor on the 10th day after implantation. An average length of life ("ALL") was calculated for each of the deceased animals. In addition, the percentage of cured rats was also determined.
# (§5) The volume of the tumor was measured and calculated as a multiple of the quadrate of its similar diameter by the greater diameter. Thus, the effect was expressed as a ratio ("E/C"), in percent, of the tumor volume in rats treated with betulinol acetate or betulonic aldehyde ("E") and the tumor volume in control rats ("C"). The effect of betulinol acetate or betulonic aldehyde on ALL was evaluated the same way.
# (§6) A total of 155 mice and 142 rats were used for these experiments.
# EHRLICH-LETTRE CARCINOMA = assay: Anti-carcinogenic activity in mice with transplanted Ehrlich tumor (average length of life); assay type: in vivo, white mice; conditions: for ALL (Average length of life): 17 Mice/Group, control 10.6; for % of control (ALL): control = 100
# Experimental: as §1, §2, §3, §4, §5, §6
# [2] = Betulinol biacetate solubility in organic solvents; assay type: physicochemical
# Experimental: Studies of betulinol biacetate solubility were conducted in order to determine the appropriate solvent for product crystallization and purification.
# [3] = Group 1, Dose/day 206.7 mg/kg body weight
# [4] = Group 2, Dose/day 197.0 mg/kg body weight
# [5] = Group 3, Dose/day 98.0 mg/kg body weight
smiles,measurement,setting,value
"C=C(C)[C@@H]1CC[C@]2(C=O)CC[C@]3(C)[C@H](CC[C@@H]4[C@@]5(C)CCC(=O)C(C)(C)[C@@H]5CC[C@]43C)[C@@H]12 [Betulon aldehyde, Betulonic Aldehyde]",rate of the tumor growth inhibited (of the control group),"[1]; 10th day, tumor volume versus control, dose and species not stated in the sentence (method speaks of rats)",31.2%
same,ALL (Average length of life),"[1]; rats, Group 1, Dose/day 102.6 mg/kg body weight, injected daily for 5 days, 28 Rats/Group, control 21.7",26.5 days
same,% of control (ALL),"[1]; rats, Group 1, Dose/day 102.6 mg/kg body weight, control = 100",122.1%
same,% cured,"[1]; rats, Group 1, Dose/day 102.6 mg/kg body weight, cured rats lived over two months after implantation",33.0%
same,ALL (Average length of life),EHRLICH-LETTRE CARCINOMA; [3],12.5 days
same,% of control (ALL),EHRLICH-LETTRE CARCINOMA; [3],118.0%
same,ALL (Average length of life),EHRLICH-LETTRE CARCINOMA; [4],10.5 days
same,% of control (ALL),EHRLICH-LETTRE CARCINOMA; [4],99.1%
same,ALL (Average length of life),EHRLICH-LETTRE CARCINOMA; [5],11.0 days
same,% of control (ALL),EHRLICH-LETTRE CARCINOMA; [5],103.7%
"C=C(C)[C@@H]1CC[C@]2(COC(C)=O)CC[C@]3(C)[C@H](CC[C@@H]4[C@@]5(C)CC[C@H](OC(C)=O)C(C)(C)[C@@H]5CC[C@]43C)[C@@H]12 [Betulinol diacetate, Betulinol Biacetate]","BBA Mass Content, %, at 20 °C",[2]; Acetone,32 mass %
same,"BBA Mass Content, %, at T (°C)","[2]; Acetone, 56 °C",68 mass %
same,"BBA Mass Content, %, at 20 °C",[2]; Benzene,100 mass %
same,"BBA Mass Content, %, at 20 °C",[2]; Butanol,15 mass %
same,"BBA Mass Content, %, at T (°C)","[2]; Butanol, 95 °C",100 mass %
same,"BBA Mass Content, %, at 20 °C",[2]; Chloroform,100 mass %
same,"BBA Mass Content, %, at 20 °C",[2]; Dimethylsulfoxide,30 mass %
same,"BBA Mass Content, %, at T (°C)","[2]; Dimethylsulfoxide, 189 °C",100 mass %
same,"BBA Mass Content, %, at 20 °C",[2]; Dioxane,30 mass %
same,"BBA Mass Content, %, at T (°C)","[2]; Dioxane, 101 °C",100 mass %
same,"BBA Mass Content, %, at 20 °C",[2]; Ethanol,2.8 mass %
same,"BBA Mass Content, %, at T (°C)","[2]; Ethanol, 78 °C",18 mass %
same,"BBA Mass Content, %, at 20 °C",[2]; Ethylacetate,53 mass %
same,"BBA Mass Content, %, at T (°C)","[2]; Ethylacetate, 77 °C",100 mass %
same,"BBA Mass Content, %, at 20 °C",[2]; Hexane,15 mass %
same,"BBA Mass Content, %, at T (°C)","[2]; Hexane, 69 °C",52 mass %
same,"BBA Mass Content, %, at 20 °C",[2]; Isopropanol,6.5 mass %
same,"BBA Mass Content, %, at T (°C)","[2]; Isopropanol, 82 °C",72 mass %
same,"BBA Mass Content, %, at 20 °C",[2]; Toluene,100 mass %
